Measured values taken from ChEMBL document CHEMBL5338775, “Discovery of a Novel Class of PROTACs as Potent and Selective Estrogen Receptor α Degraders to Overcome Endocrine-Resistant Breast Cancer In Vitro and In Vivo” (J Med Chem, 2023).
Calls of active or inactive are those of the source. The rule behind the calls is not given here.

Columns and labels:
[1] = system: MCF7; experiment: Antitumor activity against human tamoxifen-sensitive MCF7 cells xenografted in BALB/c nude mouse assessed as inhibition of tumor growth at 5 micromol/kg, ip administered once every 2 days and measured every 2 days; type: functional, organism-based; details: dose 5.0 µmol/kg
[2] = system: Mus musculus; experiment: In vivo protac activity at VHL/ERalpha in BALB/c nude mouse xenografted with human tamoxifen-sensitive MCF7 cells assessed as reduction in ERalpha protein levels in tumor at 5 micromol/kg, ip administered once every 2 days by Western blot analysis; type: functional, organism-based; details: dose 5.0 µmol/kg
[3] = system: MCF7; experiment: Antitumor activity against human tamoxifen-sensitive MCF7 cells xenografted in BALB/c nude mouse assessed as increase in tumor necrosis area at 5 micromol/kg, ip administered once every 2 days by […] staining based analysis; type: functional, organism-based; details: dose 5.0 µmol/kg
[4] = system: MCF7; experiment: Antitumor activity against human tamoxifen-sensitive MCF7 cells xenografted in BALB/c nude mouse assessed as reduction in cell proliferation at 5 micromol/kg, ip administered once every 2 days by ki67 staining based analysis; type: functional, organism-based; details: dose 5.0 µmol/kg
[5] = molecular target: T1, Estrogen receptor beta (Homo sapiens, UniProt Q92731); experiment: Binding affinity to ERbeta (unknown origin) assessed as relative binding affinity incubated for 2 hrs by fluorescence polarization assay relative to estradiol
[6] = Selectivity ratio of relative binding affinity for ERalpha (unknown origin) to relative binding affinity to ERbeta (unknown origin)
[7] = Selectivity index, ratio of Ki for ERalpha (unknown origin) to Ki for ERbeta (unknown origin)
[8] = molecular target: T2, Estrogen receptor (Homo sapiens) (UniProt P03372); experiment: Induction of ERalpha degradation in ER-positive human MCF7 cells at 1 uM incubated for 12 hrs by Western blot analysis; type: cell-based
T2 sequence (whole entry): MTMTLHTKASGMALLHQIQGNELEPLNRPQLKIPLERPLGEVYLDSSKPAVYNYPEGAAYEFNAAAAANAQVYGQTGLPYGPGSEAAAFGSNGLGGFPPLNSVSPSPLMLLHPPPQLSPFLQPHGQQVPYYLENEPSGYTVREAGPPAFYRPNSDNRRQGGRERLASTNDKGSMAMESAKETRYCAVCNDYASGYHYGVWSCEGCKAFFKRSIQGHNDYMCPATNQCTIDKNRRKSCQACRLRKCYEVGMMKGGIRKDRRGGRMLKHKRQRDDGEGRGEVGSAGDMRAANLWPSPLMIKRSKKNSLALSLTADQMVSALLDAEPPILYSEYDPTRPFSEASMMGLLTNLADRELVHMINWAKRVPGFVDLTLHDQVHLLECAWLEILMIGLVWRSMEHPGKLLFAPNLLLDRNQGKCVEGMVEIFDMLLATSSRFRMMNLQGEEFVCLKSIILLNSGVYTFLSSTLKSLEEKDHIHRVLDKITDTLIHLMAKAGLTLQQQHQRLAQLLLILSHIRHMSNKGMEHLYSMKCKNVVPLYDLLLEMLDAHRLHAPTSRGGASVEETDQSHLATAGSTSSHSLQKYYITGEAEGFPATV

[9] = molecular target: T2, Estrogen receptor (Homo sapiens); experiment: Induction of ERalpha degradation in ER-positive human MCF7 cells at 1 uM incubated for 12 hrs in presence of (2S,4R)-1-[(2S)-2-amino-3,3-dimethylbutanoyl]-4-hydroxy-N-[(1S)-1-[4-(4-methyl-1,3-thiazol-5-yl)phenyl]ethyl]pyrrolidine-2-carboxamide by Western blot analysis; type: cell-based
[10] = molecular target: T2, Estrogen receptor (Homo sapiens); experiment: Induction of ERalpha degradation in ER-positive human MCF7 cells at 1 to 10 uM incubated for 12 hrs by Western blot analysis; type: cell-based; details: dose 1-10 µM
[11] = molecular target: T1, Estrogen receptor beta; experiment: Induction of ERbeta degradation in human NCI-H1975 cells at 1 to 10 uM incubated for 12 hrs by Western blot analysis; type: cell-based; details: dose 1-10 µM
[12] = molecular target: T3, Estrogen receptor (Homo sapiens, UniProt P03372)
T3 sequence (P03372 whole entry): T2 sequence (whole entry)

[13] = molecular target: T1, Estrogen receptor beta
[14] = molecular target: T2, Estrogen receptor (Homo sapiens); experiment: Induction of ERalpha degradation in ER-positive human MCF7 cells at 1 uM incubated for 12 hrs in presence of N-ethyl-5,6-bis(4-hydroxyphenyl)-N-(4-methoxyphenyl)-7-oxabicyclo[2.2.1]hept-5-ene-2-sulfonamide by Western blot analysis; type: cell-based
[15] = molecular target: T4, von Hippel-Lindau disease tumor suppressor/Estrogen receptor (Homo sapiens) (UniProt P03372+P40337); experiment: PROTAC activity at VHL/wild type ERalpha in ER-positive human MCF7 cells assessed as induction of ERalpha degradation at 1 uM incubated for 12 hrs by Western blot analysis; type: cell-based
[16] = molecular target: T4, von Hippel-Lindau disease tumor suppressor/Estrogen receptor (Homo sapiens); experiment: PROTAC activity at VHL/wild type ERalpha in ER-positive human T47D cells assessed as induction of ERalpha degradation at 2 uM incubated for 12 hrs by Western blot analysis; type: cell-based
[17] = molecular target: T4, von Hippel-Lindau disease tumor suppressor/Estrogen receptor (Homo sapiens); experiment: PROTAC activity at VHL/ERalpha in ER-positive human tamoxifen-resistant LCC2 cells assessed as induction of ERalpha degradation at 2 uM incubated for 12 hrs by Western blot analysis; type: cell-based; details: tamoxifen-resistant LCC2 cell
[18] = system: MCF7; experiment: cells; details: Homo sapiens, MCF7, 72 h
[19] = cells; details: Homo sapiens, Tamoxifen-resistant LCC2 cell, 72 h
[20] = system: T47D; experiment: cells; details: Homo sapiens, 72 h
[21] = system: T47D; experiment: cells; details: Homo sapiens, 72 h; remark: listed apart in the source
[22] = system: T47D; experiment: cells; details: Homo sapiens, 72 h; remark: listed apart in the source
[23] = system: MDA-MB-231; experiment: cells; details: Homo sapiens, MDA-MB-231, 72 h
[24] = in vitro; details: human, MCF-10A cells
[25] = molecular target: T4, von Hippel-Lindau disease tumor suppressor/Estrogen receptor (Homo sapiens); experiment: PROTAC activity at VHL/ERalpha in ER-positive human MCF7 cells assessed as induction of ERalpha degradation at 1 to 5 uM incubated for 12 hrs by Western blot analysis; type: cell-based; details: dose 1-5 µM

T1 sequence (Q92731 whole entry): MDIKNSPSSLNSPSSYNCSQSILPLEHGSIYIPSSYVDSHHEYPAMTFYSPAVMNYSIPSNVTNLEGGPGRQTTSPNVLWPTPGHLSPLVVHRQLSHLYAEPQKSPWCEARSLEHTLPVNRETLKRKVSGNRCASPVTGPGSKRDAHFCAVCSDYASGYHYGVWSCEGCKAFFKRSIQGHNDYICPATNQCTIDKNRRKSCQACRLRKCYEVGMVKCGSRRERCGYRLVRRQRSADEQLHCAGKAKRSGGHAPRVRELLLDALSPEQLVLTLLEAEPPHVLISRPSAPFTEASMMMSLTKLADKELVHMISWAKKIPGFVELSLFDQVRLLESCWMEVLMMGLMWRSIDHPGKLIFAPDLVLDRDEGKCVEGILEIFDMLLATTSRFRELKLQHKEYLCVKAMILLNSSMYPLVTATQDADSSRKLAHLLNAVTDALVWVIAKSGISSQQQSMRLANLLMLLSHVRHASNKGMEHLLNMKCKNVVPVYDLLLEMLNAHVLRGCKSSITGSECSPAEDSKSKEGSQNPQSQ
T4 sequence (P40337 whole entry, looked up, one chain of several): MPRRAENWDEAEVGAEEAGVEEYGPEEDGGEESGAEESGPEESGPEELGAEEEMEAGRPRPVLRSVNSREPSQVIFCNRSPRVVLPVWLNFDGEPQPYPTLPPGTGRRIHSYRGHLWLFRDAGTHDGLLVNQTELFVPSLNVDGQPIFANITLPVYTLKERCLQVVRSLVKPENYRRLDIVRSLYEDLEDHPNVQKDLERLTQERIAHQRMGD

Activity [8]	SMILES	RBA [5] [%]	Selectivity ratio [6]	Ratio Ki [7]	Ki [12] [µM]	Ki [13] [µM]	Activity [15]	Activity [16]	Activity [17]	IC50 [18] [µM]	IC50 [19] [µM]	IC50 [20] [µM]	IC50 [21] [µM]	IC50 [22] [µM]	IC50 [23] [µM]	IC50 at 72 h [24] [µM]	further results
–	CC/C(=C(\c1ccccc1)c1ccc(OCCN(C)C)cc1)c1ccccc1	–	–	–	–	–	–	–	–	–	–	–	–	–	–	–	inhibition [1]: Active; Activity [2]: inactive; Activity [3]: Active; Activity [4]: Active
inactive	CCN(c1ccc(OC)cc1)S(=O)(=O)C1CC2OC1C(c1ccc(O)cc1)=C2c1ccc(O)cc1 (stereo not drawn)	0.31	3.39	13.1	0.19	2.54	–	–	–	–	–	–	–	–	–	–	Activity [9]: inactive; Activity [10]: inactive; Activity [11]: inactive
inactive	Cc1ncsc1-c1ccc([C@H](C)NC(=O)[C@@H]2C[C@@H](O)CN2C(=O)[C@@H](N)C(C)(C)C)cc1	–	–	–	–	–	–	–	–	–	–	–	–	–	–	–	Activity [14]: inactive
–	CCN(c1ccc(OCCCCCC(=O)N[C@H](C(=O)N2C[C@H](O)C[C@H]2C(=O)NCc2ccc(-c3scnc3C)cc2)C(C)(C)C)cc1)S(=O)(=O)C1CC2OC1C(c1ccc(O)cc1)=C2c1ccc(O)cc1 (stereo partly drawn)	0.08	1.38	5.32	1.85	9.83	Active	Active	Active	1.61	14.2	0.76	0.73	1.78	> 100	5.17	–
–	CCN(c1ccc(OCCCCCC(=O)N[C@H](C(=O)N2C[C@@H](O)C[C@H]2C(=O)N[C@@H](C)c2ccc(-c3scnc3C)cc2)C(C)(C)C)cc1)S(=O)(=O)C1CC2OC1C(c1ccc(O)cc1)=C2c1ccc(O)cc1 (stereo partly drawn)	0.16	0.81	3.15	1.56	4.91	–	–	–	> 50	> 50	> 50	> 50	> 50	> 100	> 100	Activity [25]: inactive
–	Cc1ncsc1-c1ccc(CNC(=O)[C@@H]2C[C@@H](O)CN2C(=O)[C@@H](NC(=O)CCCCCOc2ccc(N(CC(F)(F)F)S(=O)(=O)C3CC4OC3C(c3ccc(O)cc3)=C4c3ccc(O)cc3)cc2)C(C)(C)C)cc1 (stereo partly drawn)	0.04	1.75	6.78	2.9	19.7	Active	Active	Active	0.11	13	12.6	11.3	9.28	> 100	1.35	–
